Counter-ions that a name gives are not always drawn.
Assays:
[1] = test system: PAF-Induced Platelet Aggregation; experiment: Inhibitory Action on PAF-Induced Platelet Aggregation; format: cell-based, New Zealand white male rabbits; settings: Oryctolagus cuniculus, Drug Concentration: 3 × 10^-5 M, rabbit PRP
Experimental: Blood was collected from the hearts of conscious New Zealand white male rabbits weighing 2 to 3 kg using citric acid as an anticoagulant (one volume part of 3.15% citric acid per 9 volume parts of the whole blood). The blood was subjected to a centrifuge at 800 rpm for ten minutes to obtain platelet rich plasma (PRP). The remaining blood after collecting the PRP was subjected to a centrifuge at 3000 rpm for ten minutes to obtain platelet poor plasma (PPP). PRP was diluted with PPP, and the number of platelets was adjusted to 500,000/μl. Platelet aggregation was examined by means of turbidimetry [Born, Nature, 194, 927-929 (1962)] with 8 channel aggregometer (NBS HEMA TRACER 6 Nikoh, Bioscience, Japan). More concretely, PRP (250 μl) was kept warm (37° C.) for three minutes in a silicon-processed cuvette, to which was added a test sample (25 μl) dissolved in a physiological saline or in 10mM dimethylsulfoxide followed by dilution with a physiological saline. Two minutes later, PAF (25 μl, 3×10^-9 -1×10^-8 M), dissolved in a physiological saline, was added and then the maximum aggregation rate was determined. As the control, physiological saline without test sample was added to the cuvette, and the inhibitory rate thereon was determined.

PAF-Induced Hypotension = experiment: Inhibitory Action on PAF-Induced Hypotension; format: in vivo, SD (Jcl) male rats; settings: po, 30 mg/kg p.o., rat
Experimental: SD (Jcl) male rats of 6 to 8 week old were subjected to the experiment. After fasting overnight, the rats were cannulated into the femoral artery and vein under anesthesia with pentobarbital. A transducer (MPU-0.5-290O-III, TOYO BALDWIN, Japan) was connected with the artery cannula, and blood pressure was continuously measured. […] The rate of inhibition of lowering of blood pressure after administration of the test samples against the control was evaluated.

Compound	inhibition at 30 µM [1]	inhibition in vivo at 30 mg/kg (PAF-Induced Hypotension; after 1 hr)	inhibition in vivo at 30 mg/kg (PAF-Induced Hypotension; after 2 hrs)	inhibition in vivo at 30 mg/kg (PAF-Induced Hypotension; after 4 hrs)
COc1cc2c(cc1OC)CCC(C(=O)N1CCN(Cc3cc(OC)c(OC)c(OC)c3)CC1)=C2 [Example 5, 1-(6,7-dimethoxy-1,2-dihydro-3-naphthoyl)-4-(3,4,5-trimethoxybenzyl)piperazine hydrochloride]	100%	77%	75%	49%
COc1cc(CN2CCN(C(=O)c3ccc4c(OC)c(OC)c(OC)cc4c3)CC2)cc(OC)c1OC [Example 12, 1-(3,4,5-trimethoxybenzyl)-4-(5,6,7-trimethoxy)-2-naphthoyl)piperazine hydrochloride]	100%			
CCCCOc1ccc2c(c1)CCC(C(=O)N1CCN(Cc3cc(OC)c(OC)c(OC)c3)CC1)=C2 [Example 15, 1-(7-butoxy-1,2-dihydro-3-naphthoyl)-4-(3,4,5-trimethoxybenzyl)piperazine hydrochloride]	100%			
CCCCOc1ccc2cc(C(=O)N3CCN(Cc4cc(OC)c(OC)c(OC)c4)CC3)ccc2c1 [Example 17, 1-(6-butoxy-2-naphthoyl)-4(3,4,5-trimethoxybenzyl)piperazine hydrochloride]	97%			
COc1cc2ccc(C(=O)N3CCN(Cc4cc(OC)c(OC)c(OC)c4)CC3)cc2cc1OC [Example 21, 1-(6,7-dimethoxy-2-naphthoyl)-4-(3,4,5-trimethoxybenzyl)piperazinehydrochloride]	93%			
CCCCOc1cc2ccc(C(=O)N3CCN(Cc4cc(OC)c(OC)c(OC)c4)CC3)cc2cc1OCCCC [Example 23, 1-(6,7-dibutoxy-2-naphthoyl)-4-(3,4,5-trimethoxybenzyl)piperazine hydrochloride]	100%			
COc1cc2ccccc2cc1C(=O)N1CCN(Cc2cc(OC)c(OC)c(OC)c2)CC1 [Example 24, 1-(3-methoxy-2-napththoyl)-4-(3,4,5-trimethoxybenzyl)piperazine hydrochloride]	100%			
COc1cc(CN2CCN(C(=O)c3ccc4c(c3)C(=O)c3ccccc3C4=O)CC2)cc(OC)c1OC [Example 26, 1-(2-anthraquinonylcarbonyl)-4-(3,4,5-trimethoxybenzyl)piperazine]	91%			
COc1cc(CN2CCN(C(=O)C3=Cc4cc(OCc5ccccc5)c(OCc5ccccc5)cc4CC3)CC2)cc(OC)c1OC [Example 28, 1-(6,7-dibenzyloxy-1,2-dihydro-3-naphthoyl)-4-(3,4,5-trimethoxybenzyl)piperazine hydrochloride]	87%			
COc1cc(CN2CCN(C(=O)C3=Cc4ccc(OCc5ccccc5)cc4CC3)CC2)cc(OC)c1OC [Example 32, 1-(7-benzyloxy-1,2-dihydro-3-naphthoyl)-4-(3,4,5-trimethoxybenzyl)piperazine hydrochloride]	100%			
COc1cc(CN2CCN(C(=O)C3=Cc4cc(OC(C)=O)c(OC(C)=O)cc4CC3)CC2)cc(OC)c1OC [Example 36, 1-(6,7-diacetyloxy-1,2-dihydro-3-naphthoyl)-4-(3,4,5-trimethoxybenzyl)piperazine fumarate]	86%			
COc1cc(CN2CCN(C(=O)c3ccc4c(c3)C(=O)c3ccccc3-4)CC2)cc(OC)c1OC [Example 38, 1-(9-oxo-2-fluorenylcarbonyl)-4-(3,4,5-trimethoxybenzyl)piperazine]	85%			
COc1cc(CN2CCN(C(=O)c3ccc4c(c3)C(O)c3ccccc3-4)CC2)cc(OC)c1OC (stereo not shown) [Example 39, 1-(9-hydroxy-2-fluorenylcarbonyl)-4-(3,4,5-trimethoxybenzyl)piperazine hydrochloride]	100%	70%	64%	47%
COc1cc2ccc(C(=O)N3CCN(Cc4cc(OC)c(OC)c(OC)c4)CC3)c(O)c2cc1OC [Example 41, 1-(6,7-dimethoxy-1-hydroxy-2-naphthoyl)-4-(3,4,5-trimethoxybenzyl)piperazine hydrochloride]	97%			
COc1cc(CN2CCN(C(=O)C3=Cc4ccc(OC)c(OC)c4CCC3)CC2)cc(OC)c1OC [Example 43, 1-(3,4-dimethoxy-6,7-dihydro-5H-benzocyclohepten-8-ylcarbonyl)-4-(3,4,5-trimethoxybenzyl)piperazine hydrochloride]	89%			
COc1cc2c(cc1OC)CCCC(C(=O)N1CCN(Cc3cc(OC)c(OC)c(OC)c3)CC1)=C2 [Example 49, 1-(2,3-dimethoxy-6,7-dihydro-5H-benzocyclohepten-8-ylcarbonyl)-4-(3,4,5-trimethoxybenzyl)piperazine hydrochloride]	100%	94%	97%	88%
COc1cc2c(cc1OC)CCC(C(=O)N1CCN(C(=O)c3cc(OC)c(OC)c(OC)c3)CC1)=C2 [Example 56, 1-(6,7-dimethoxy-1,2-dihydro-3-naphthoyl)-4-(3,4,5-trimethoxybenzoyl)piperazine]	100%	100%	97%	88%
CCOc1cc2c(cc1OCC)CCC(C(=O)N1CCN(Cc3cc(OC)c(OC)c(OC)c3)CC1)=C2 [Example 58, 1-(6,7-diethoxy-1,2-dihydro-3-naphthoyl)-4-(3,4,5-trimethoxybenzyl)piperazine hydrochloride]	100%	88%	95%	65%
CCCOc1cc2c(cc1OCCC)CCC(C(=O)N1CCN(Cc3cc(OC)c(OC)c(OC)c3)CC1)=C2 [Example 60, 1-(6,7-dipropoxy-1,2-dihydro-3-naphthoyl)-4-(3,4,5-trimethoxybenzyl)-piperazine hydrochloride]	100%	79%	69%	60%
CCOc1cc2c(cc1OCC)CCC(C(=O)N1CCN(C(=O)c3cc(OC)c(OC)c(OC)c3)CC1)=C2 [Example 65, 1-(6,7-diethoxy-1,2-dihydro-3-naphthoyl)-4-(3,4,5-trimethoxybenzoyl)piperazine]	100%	100%	100%	77%
CCCOc1cc2c(cc1OCCC)CCC(C(=O)N1CCN(C(=O)c3cc(OC)c(OC)c(OC)c3)CC1)=C2 [Example 66, 1-(6,7-dipropoxy-1,2-dihydro-3-naphthoyl)-4-(3,4,5-trimethoxybenzoyl)piperazine]	100%	77%	79%	68%
CCOc1cc2c(cc1OCC)CCCC(C(=O)N1CCN(Cc3cc(OC)c(OC)c(OC)c3)CC1)=C2 [Example 72, 1-(2,3-diethoxy-6,7-dihydro-5H-benzocyclohepten-8-ylcarbonyl)-4-(3,4,5-trimethoxybenzyl)piperazine hydrochloride]	100%	98%	99%	75%
